Measurements as given in patent US5863913A, “Aromatic compound and pharmaceutical composition” (Kureha Chemical Industry Co., Ltd., priority 1996, dated 1999).

Tests used:
[1] = target: T1, angiotensin II receptor subtype 2 (AT2) (Bos taurus, UniProt G5E6F7); assay: Binding to receptors: angiotensin II receptor subtype 2 (AT2); settings: bovine cerebellar cortex, tracer 125I-Tyr4-angiotensin II
T1 construct: receptor : from cerebellar cortex in bovine; from tissue; host or cells: bovine cerebellar cortex
T1 sequence (G5E6F7 1-362): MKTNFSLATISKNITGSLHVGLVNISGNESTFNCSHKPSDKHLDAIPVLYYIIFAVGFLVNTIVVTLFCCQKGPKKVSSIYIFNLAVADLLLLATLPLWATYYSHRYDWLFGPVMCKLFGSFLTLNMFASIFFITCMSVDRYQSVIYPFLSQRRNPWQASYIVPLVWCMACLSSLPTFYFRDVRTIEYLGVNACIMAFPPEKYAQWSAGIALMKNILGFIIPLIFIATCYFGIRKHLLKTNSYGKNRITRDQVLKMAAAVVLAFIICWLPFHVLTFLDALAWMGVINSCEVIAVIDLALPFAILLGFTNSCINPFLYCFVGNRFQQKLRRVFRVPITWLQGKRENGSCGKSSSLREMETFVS
Protocol: In this Example, the affinity to the angiotensin II receptor subtype 1 or subtype 2 was evaluated by a binding assay in accordance with the method described in Biochem. Pharmacol., 33, 4057-4062 (1984).
Specifically, the measurement of the total binding in the presence of each drug was performed as follows:
A mixture (final volume=0.25 ml) of a drug in a given concentration (the drug was dissolved in DMSO, and diluted to a double volume with a buffer attached to a drug discovery system to prepare a sample for the assay; 0.025 ml), a tracer (0.025 ml), and receptors (0.2 ml) was incubated [in the case of the angiotensin II receptor subtype 1 (AT1), at room temperature for 3 hours, and in the case of the subtype 2 (AT2), at 37° C. for 1 hour]. Then, the reaction mixture was filtered with suction (GF/C filter was used in AT1, and GF/B filter was used in AT2). The filter papers after filtration with suction (the tracer bound to the receptors) were counted by a γ-well counter (ARC-500, Aloka). The non-specific bindings were measured by repeating the above method, except that a large excess amount of a displacer was added. The specific binding of the drug in the given concentration was calculated by subtracting the non-specific binding from the total binding, respectively.
In AT1 and AT2, the percentages found to inhibit the bindings of radioactive ligands (tracer) to receptors by the drugs to be tested (IC50 value of concentration to show 50% inhibition, or binding inhibition % in 100 μM) were measured, using the drugs to be tested and control drugs in the given concentration.
receptor : from cerebellar cortex in bovine
tracer : ^125 ITyr^4angiotensin II
control drug : angiotensin II (human)
(displacer) : angiotensin II (human)

[2] = tested on: kidney disease model rats; assay: Survival time of kidney diseased animals; type: in vivo, Sprague-Dawley female rats; settings: 20 mg/kg/day with drinking water, observation period eight weeks (upper limit); control 5.0
Protocol: The compounds of the present invention and the reference substance were administered with drinking water to kidney disease model rats, and the action of lowering the blood pressure was observed. The kidney disease model rats were prepared by a ligature of branches of renal artery in accordance with a conventional method. Namely, the left hilum renalis of Sprague-Dawley female rats was exposed under anesthesia, and one of four secondary branches of the renal artery was left unligated, while the remaining three branches were ligated, respectively. After a week, the hilum renalis (artery, vein, and ureter) of the right kidney were further ligated to thereby prepare rats whose renal function was lowered to approximately 1/8 of the normal function. Each group consisted of eight rats. The drugs to be tested (20 mg/kg) were administered to each administering group, and only water was administered to a control group. Two days after the administration, the systolic blood pressure was measured by the tail cuff method using a blood pressure measuring apparatus (UR5000; Ueda).
The kidney disease model rats were prepared as in Example 54. Twenty-two groups (8 rats per group) were prepared in a manner such that there was no major difference between the groups in the serum creatinine value and the blood urea nitrogen value indicating renal function. The rats in each group were allowed to freely take up food. […] To the rats in the control group, only water was administered every day. If kidney diseases are aggravated, the rat will die of uremia. Thus, the survival time was observed as a comprehensive indication of the improvement of the effect on the kidney diseases. The observation period was eight weeks. Thus if all rats survived, the average survival time is eight weeks, and is an upper limit.

`CCCCC(=O)N(Cc1ccc(C(=O)OCCN(C)C)cc1)c1cc(C(=O)N2CCOCC2)ccc1C(C)C` [Compound No. 6, 3-N-[[[4-(2'-dimethylaminoethoxycarbonyl)phenyl]methyl]valeramido]-4-i-propylbenzoic acid morpholide] showed an inhibition at 100 µM [1] of 21% and an Average survival time [2] of 7.0 weeks.

`CCCCC(=O)N(Cc1ccc(C(=O)OCCN(C)C)cc1)c1cc(C(=O)N2CCOCC2)ccc1N(C)C` [Compound No. 1, 4-dimethylamino-3-N-[[[4-(2'-dimethylaminoethoxycarbonyl)phenyl]methyl]valeramido]benzoic acid morpholide] showed an inhibition at 100 µM [1] of 16% and an Average survival time [2] of 7.5 weeks.

`CCCCC(=O)N(Cc1ccc(C(=O)O)cc1)c1cc(C(=O)N2CCN(C)CC2)ccc1C(C)C` [Compound No. 15, 3-[[(4-carboxyphenyl)methyl]valeramido]-4-i-propylbenzoic acid 4'-methylpiperazide] showed an inhibition at 100 µM [1] of 0% and an Average survival time [2] of 6.1 weeks.

`CCCCC(=O)N(Cc1ccc(C(=O)OCCN2CCOCC2)cc1)c1cc(C(=O)N2CCOCC2)ccc1C(C)C` [Compound No. 9, 3-N-[[[4-(2'-morpholinoethoxycarbonyl)phenyl]methyl]valeramido]-i-propylbenzoic acid morpholide] showed an inhibition at 100 µM [1] of 0% and an Average survival time [2] of 6.9 weeks.

Compound `CCCCCCC(=O)N(Cc1ccc(C(=O)O)cc1)c1cc(C(=O)N2CCN(C)CC2)ccc1C(C)C` [Compound No. 18, 3-N-[[(4-carboxyphenyl)methyl]n-heptanamido]-4-i-propylbenzoic acid 4'-methylpiperazide] has an inhibition at 100 µM [1] of 9% and an Average survival time [2] of 7.0 weeks.

In the case of `CCCCC(=O)N(Cc1ccc(C(=O)O)cc1)c1cc(C(=O)N2CCN(CCC)CC2)ccc1C(C)C` [Compound No. 19, 3-[[(4-carboxyphenyl)methyl]valeramido]-4-i-propylbenzoic acid 4'-n-propylpiperazide], the inhibition at 100 µM [1] is reported as 18% and the Average survival time [2] is reported as 7.2 weeks.

For `CCCCC(=O)N(Cc1ccc(C(=O)OCCN(CC)CC)cc1)c1cc(C(=O)N2CCOCC2)ccc1C(C)C` [Compound No. 8, 3-N-[[[4-(2'-diethylaminoethoxycarbonyl)phenyl]methyl]valeramido]-4-i-propylbenzoic acid morpholide], the inhibition at 100 µM [1] was 0% and the Average survival time [2] was 6.9 weeks.

`CCCCCCC(=O)N(Cc1ccc(C(=O)O)cc1)c1cc(C(=O)N2CCN(CCC)CC2)ccc1C(C)C` [Compound No. 20, 3-N-[[(4-carboxyphenyl)methyl]n-heptanamido]-4-i-propylbenzoic acid 4'-n-propylpiperazide] was tested, and the inhibition at 100 µM [1] was 0% and the Average survival time [2] was 7.3 weeks.

`CCCCCCC(=O)N(Cc1ccc(C(=O)O)cc1)c1cc(C(=O)N2CCN(CCC)CC2)ccc1N(C)C` [Compound No. 12, 4-dimethylamino-3-N-[[(4-carboxyphenyl)methyl]n-heptanamido]benzoic acid 4'-n-propyl piperazide] showed an inhibition at 100 µM [1] of 0% and an Average survival time [2] of 7.0 weeks.

With `CCCCC(=O)N(Cc1ccc(C(=O)OCCCN)cc1)c1cc(C(=O)N2CCOCC2)ccc1N(C)C` [Compound No. 3, 3-N-[[[4-(3'-aminopropoxycarbonyl)phenyl]methyl]valeramido]-4-dimethylaminobenzoic acid morpholide] the inhibition at 100 µM [1] was 0% and the Average survival time [2] was 6.9 weeks.

`CCCCC(=O)N(Cc1ccc(C(=O)OCCCN(C)C)cc1)c1cc(C(=O)N2CCOCC2)ccc1C(C)C` [Compound No. 7, 3-N-[[[4-(3'-dimethylamino-1'-propoxycarbonyl)phenyl]methyl]valeramido]-4-i-propylbenzoic acid morpholide] showed an inhibition at 100 µM [1] of 0% and an Average survival time [2] of 6.9 weeks.

With `CCCCC(=O)N(Cc1ccc(C(=O)OCCCN(C)C)cc1)c1cc(C(=O)N2CCOCC2)ccc1N(C)C` [Compound No. 2, 4-dimethylamino-3-N-[[[4-(3'-dimethylaminopropoxycarbonyl)phenyl]methyl]valeramido]benzoic acid morpholide] the inhibition at 100 µM [1] was 0% and the Average survival time [2] was 6.9 weeks.

Compound `CCCCCCC(=O)N(Cc1ccc(C(=O)O)cc1)c1cc(C(=O)N2CCN(C)CC2)ccc1N(C)C` [Compound No. 13, 3-[[(4-carboxyohenyl)methyl]n-heptanamido]-4-dimethylaminobenzoic acid 4'-methylpiperazide] has an inhibition at 100 µM [1] of 0% and an Average survival time [2] of 6.9 weeks.
